{"source": "patent US7118895B2", "about": "“Process for producing aglycon by using diglycosidase and flavor-improved food containing the aglycon and converting agent to be used in the process” (Amano Enzyme Inc., priority 2000, dated 2006)", "system": "Crude diglycosidase", "assay": "Examination of temperature in the conversion into isoflavone aglycons by diglycosidase using soybean materials", "type": "biochemical, Penicillium multicolor IAM7153", "set-up": "Decomposition efficiency of glycitin family in roasted soy flour / Decomposition efficiency of daidzin family in roasted soy flour / Decomposition efficiency of genistin family in soymilk / Decomposition efficiency of daidzin family in soymilk / Decomposition efficiency of glycitin family in defatted soybean / Decomposition efficiency of daidzin family in defatted soybean: concentration or dose not given beside the values", "details": "for maximum isolation of aglycons: reaction at 55° C. for 6 hours", "procedure": "Into 400 μL of 20 mM acetate buffer of pH 4.0 was suspended 50 mg of each of various soybean materials (roasted soy flour (manufactured by Fuji Shokuryo K.K.), soymilk (manufactured by Gitoh Shokuhin K.K.), defatted soybean (manufactured by Fuji Seiyu K.K.), concentrated soybean protein (manufactured by Fuji Seiyu K.K.)), whereby a substrate solution was prepared. Crude diglycosidase was diluted with 20 mM acetate buffer of pH 4.0 to be the glycosidase activity of 1.88 AU/mL. Fifty μL of the enzyme solution was mixed with the substrate solution and the whole was reacted at 80, 65, 55, 45, 37, or 30° C. at the total volume of 500 μL. To the reaction mixture was added 700 μL of ethanol after 0, 1, 3, and 6 hours of the reaction. After stirring and ultrasonication, the mixture was subjected to centrifugal separation at 15,000 rpm and 4° C. for 10 minutes. The supernatant was filtered through a filter and the existence of isoflavone glycosides and aglycon isoflavones contained in the reaction mixture was detected by HLPC.", "key": {"[1]": {"details": "55 °C, heat treatment of enzyme: no, 1 h"}, "[2]": {"details": "55 °C, heat treatment of enzyme: no, 3 h"}, "[3]": {"details": "55 °C, heat treatment of enzyme: no, 6 h"}, "[4]": {"details": "55 °C, heat treatment of enzyme: yes, 6 h"}, "[5]": {"details": "65° C., heat treatment of enzyme no, reaction time 0 h"}, "[6]": {"details": "65° C., heat treatment of enzyme no, reaction time 1 h"}, "[7]": {"details": "65° C., heat treatment of enzyme no, reaction time 3 h"}, "[8]": {"details": "65° C., heat treatment of enzyme no, reaction time 6 h"}, "[9]": {"details": "65° C., heat treatment of enzyme yes, reaction time 6 h"}, "[10]": {"details": "65 °C, heat treatment of enzyme: no, 0 h"}, "[11]": {"details": "65 °C, heat treatment of enzyme: no, 1 h"}, "[12]": {"details": "65 °C, heat treatment of enzyme: no, 3 h"}, "[13]": {"details": "65 °C, heat treatment of enzyme: no, 6 h"}, "[14]": {"details": "65 °C, heat treatment of enzyme: yes, 6 h"}, "[15]": {"details": "80° C., heat treatment of enzyme no, reaction time 0 h"}, "[16]": {"details": "80° C., heat treatment of enzyme no, reaction time 1 h"}, "[17]": {"details": "80° C., heat treatment of enzyme no, reaction time 3 h"}, "[18]": {"details": "80° C., heat treatment of enzyme no, reaction time 6 h"}, "[19]": {"details": "80° C., heat treatment of enzyme yes, reaction time 6 h"}, "[20]": {"details": "80 °C, heat treatment of enzyme: no, 0 h"}, "[21]": {"details": "80 °C, heat treatment of enzyme: no, 1 h"}, "[22]": {"details": "80 °C, heat treatment of enzyme: no, 3 h"}, "[23]": {"details": "80 °C, heat treatment of enzyme: no, 6 h"}, "[24]": {"details": "80 °C, heat treatment of enzyme: yes, 6 h"}}}
{"smiles": "O=c1c(-c2ccc(O)cc2)coc2cc(O)ccc12", "note": "[daidzein]", "values": [{"measurement": "Decomposition efficiency of daidzin family in roasted soy flour", "setting": "[1]", "result": 57.2, "unit": "%"}, {"measurement": "Decomposition efficiency of daidzin family in soymilk", "setting": "[1]", "result": 49.1, "unit": "%"}, {"measurement": "Decomposition efficiency of daidzin family in roasted soy flour", "setting": "[2]", "result": 67.5, "unit": "%"}, {"measurement": "Decomposition efficiency of daidzin family in soymilk", "setting": "[2]", "result": 58.9, "unit": "%"}, {"measurement": "Decomposition efficiency of daidzin family in roasted soy flour", "setting": "[3]", "result": 73.3, "unit": "%"}, {"measurement": "Decomposition efficiency of daidzin family in soymilk", "setting": "[3]", "result": 68.9, "unit": "%"}, {"measurement": "Decomposition efficiency of daidzin family in roasted soy flour", "setting": "[4]", "result": 5.3, "unit": "%"}, {"measurement": "Decomposition efficiency of daidzin family in soymilk", "setting": "[4]", "result": 8.6, "unit": "%"}, {"measurement": "Decomposition efficiency of daidzin family in concentrated soybean protein", "setting": "[5]", "result": 3.0, "unit": "%"}, {"measurement": "Decomposition efficiency of daidzin family in defatted soybean", "setting": "[5]", "result": 16.2, "unit": "%"}, {"measurement": "Decomposition efficiency of daidzin family in concentrated soybean protein", "setting": "[6]", "result": 53.9, "unit": "%"}, {"measurement": "Decomposition efficiency of daidzin family in defatted soybean", "setting": "[6]", "result": 55.3, "unit": "%"}, {"measurement": "Decomposition efficiency of daidzin family in concentrated soybean protein", "setting": "[7]", "result": 55.4, "unit": "%"}, {"measurement": "Decomposition efficiency of daidzin family in defatted soybean", "setting": "[7]", "result": 58.4, "unit": "%"}, {"measurement": "Decomposition efficiency of daidzin family in concentrated soybean protein", "setting": "[8]", "result": 56.7, "unit": "%"}, {"measurement": "Decomposition efficiency of daidzin family in defatted soybean", "setting": "[8]", "result": 62.7, "unit": "%"}, {"measurement": "Decomposition efficiency of daidzin family in concentrated soybean protein", "setting": "[9]", "result": 3.2, "unit": "%"}, {"measurement": "Decomposition efficiency of daidzin family in defatted soybean", "setting": "[9]", "result": 32.0, "unit": "%"}, {"measurement": "Decomposition efficiency of daidzin family in roasted soy flour", "setting": "[10]", "result": 3.6, "unit": "%"}, {"measurement": "Decomposition efficiency of daidzin family in soymilk", "setting": "[10]", "result": 9.1, "unit": "%"}, {"measurement": "Decomposition efficiency of daidzin family in roasted soy flour", "setting": "[11]", "result": 56.3, "unit": "%"}, {"measurement": "Decomposition efficiency of daidzin family in soymilk", "setting": "[11]", "result": 48.3, "unit": "%"}, {"measurement": "Decomposition efficiency of daidzin family in roasted soy flour", "setting": "[12]", "result": 59.8, "unit": "%"}, {"measurement": "Decomposition efficiency of daidzin family in soymilk", "setting": "[12]", "result": 56.1, "unit": "%"}, {"measurement": "Decomposition efficiency of daidzin family in roasted soy flour", "setting": "[13]", "result": 62.2, "unit": "%"}, {"measurement": "Decomposition efficiency of daidzin family in soymilk", "setting": "[13]", "result": 64.7, "unit": "%"}, {"measurement": "Decomposition efficiency of daidzin family in roasted soy flour", "setting": "[14]", "result": 4.2, "unit": "%"}, {"measurement": "Decomposition efficiency of daidzin family in soymilk", "setting": "[14]", "result": 8.8, "unit": "%"}, {"measurement": "Decomposition efficiency of daidzin family in concentrated soybean protein", "setting": "[15]", "result": 3.1, "unit": "%"}, {"measurement": "Decomposition efficiency of daidzin family in defatted soybean", "setting": "[15]", "result": 16.2, "unit": "%"}, {"measurement": "Decomposition efficiency of daidzin family in concentrated soybean protein", "setting": "[16]", "result": 31.9, "unit": "%"}, {"measurement": "Decomposition efficiency of daidzin family in defatted soybean", "setting": "[16]", "result": 52.4, "unit": "%"}, {"measurement": "Decomposition efficiency of daidzin family in concentrated soybean protein", "setting": "[17]", "result": 32.0, "unit": "%"}, {"measurement": "Decomposition efficiency of daidzin family in defatted soybean", "setting": "[17]", "result": 52.0, "unit": "%"}, {"measurement": "Decomposition efficiency of daidzin family in concentrated soybean protein", "setting": "[18]", "result": 30.7, "unit": "%"}, {"measurement": "Decomposition efficiency of daidzin family in defatted soybean", "setting": "[18]", "result": 51.7, "unit": "%"}, {"measurement": "Decomposition efficiency of daidzin family in concentrated soybean protein", "setting": "[19]", "result": 3.2, "unit": "%"}, {"measurement": "Decomposition efficiency of daidzin family in defatted soybean", "setting": "[19]", "result": 21.7, "unit": "%"}, {"measurement": "Decomposition efficiency of daidzin family in roasted soy flour", "setting": "[20]", "result": 3.7, "unit": "%"}, {"measurement": "Decomposition efficiency of daidzin family in soymilk", "setting": "[20]", "result": 8.9, "unit": "%"}, {"measurement": "Decomposition efficiency of daidzin family in roasted soy flour", "setting": "[21]", "result": 47.7, "unit": "%"}, {"measurement": "Decomposition efficiency of daidzin family in soymilk", "setting": "[21]", "result": 40.3, "unit": "%"}, {"measurement": "Decomposition efficiency of daidzin family in roasted soy flour", "setting": "[22]", "result": 47.7, "unit": "%"}, {"measurement": "Decomposition efficiency of daidzin family in soymilk", "setting": "[22]", "result": 39.7, "unit": "%"}, {"measurement": "Decomposition efficiency of daidzin family in roasted soy flour", "setting": "[23]", "result": 40.8, "unit": "%"}, {"measurement": "Decomposition efficiency of daidzin family in soymilk", "setting": "[23]", "result": 34.1, "unit": "%"}, {"measurement": "Decomposition efficiency of daidzin family in roasted soy flour", "setting": "[24]", "result": 3.8, "unit": "%"}, {"measurement": "Decomposition efficiency of daidzin family in soymilk", "setting": "[24]", "result": 8.8, "unit": "%"}, {"measurement": "maximum isolation of aglycons", "setting": "concentrated soybean protein", "result": "about 62%"}, {"measurement": "maximum isolation of aglycons", "setting": "defatted soybean", "result": "about 60%"}, {"measurement": "maximum isolation of aglycons", "setting": "soy flour", "result": "about 73%"}, {"measurement": "maximum isolation of aglycons", "setting": "soymilk", "result": "about 70%"}]}
